Results on 4 compounds are retold here after publication PMC3445262 (International immunopharmacology, 2011).

As a reminder, the EC50 is the concentration that produces a half-maximal response. High values mean weaker potency, low ones greater potency.

Test [1] addresses CB2 receptor mutant W5.43(194)Y (Homo sapiens, UniProt P34972, W194Y). It is filed as binding. The conditions noted are these: W5.43(194)Y vs CB2 WT.
Test [2] relates to CB1 W5.43(280)A. The conditions noted are these: cited from earlier work.
The test system of test [3] is CB1 W5.43(280)A. The conditions noted are these: cited from earlier work. This is another data set of the same source.
Test [4] deals with CB2 W194A mutant receptor in HEK293 cells (Homo sapiens, UniProt P34972, W194A). The class given is cell-based.
Sequence of CB2 W194A mutant receptor in HEK293 cells (P34972 whole entry W194A): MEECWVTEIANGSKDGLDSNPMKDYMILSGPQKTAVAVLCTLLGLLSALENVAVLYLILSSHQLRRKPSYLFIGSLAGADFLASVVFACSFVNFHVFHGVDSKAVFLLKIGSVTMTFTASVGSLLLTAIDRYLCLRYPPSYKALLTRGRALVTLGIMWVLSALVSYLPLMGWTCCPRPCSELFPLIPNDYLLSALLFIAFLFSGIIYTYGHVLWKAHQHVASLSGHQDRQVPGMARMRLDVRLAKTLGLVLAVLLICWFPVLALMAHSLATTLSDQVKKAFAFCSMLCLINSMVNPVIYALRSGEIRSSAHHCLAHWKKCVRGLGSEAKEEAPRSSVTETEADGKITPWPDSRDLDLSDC
The target of test [5] is CB2 WT receptor in HEK293 cells (Homo sapiens, UniProt P34972). The class given is cell-based.
Sequence of CB2 WT receptor in HEK293 cells (P34972 whole entry): as the sequence (P34972 whole entry W194A) above, with A194W counted along it
Test [6] addresses CB2 W194F mutant receptor in HEK293 cells (Homo sapiens, UniProt P34972, W194F). The class given is cell-based.
For test [7], the target named is CB2 W194Y mutant receptor in HEK293 cells (Homo sapiens, UniProt P34972, W194Y). The class given is cell-based.
Sequence of CB2 W194Y mutant receptor in HEK293 cells (P34972 whole entry W194Y): as the sequence (P34972 whole entry W194A) above, with A194Y counted along it

Sequence of CB2 receptor mutant W5.43(194)Y (P34972 whole entry W194Y): as the sequence (P34972 whole entry W194A) above, with A194Y counted along it
Sequence of CB2 W194F mutant receptor in HEK293 cells (P34972 whole entry W194F): as the sequence (P34972 whole entry W194A) above, with A194F counted along it

Turning to `CCCCCCC(C)(C)c1ccc([C@@H]2C[C@H](O)CC[C@H]2CCCO)c(O)c1` [CP55940], the “Reduction of binding affinity by W5.43(194)Y mutation compared with wild-type” value in test [1] is “no effect”.
On the same count and under the same terms, the figure for SR144528 is 5 fold.
With `Cc1c(C(=O)c2cccc3ccccc23)c2cccc3c2n1[C@H](CN1CCOCC1)CO3` [WIN55212-2], in the test with CB1 W5.43(280)A [2], the “Reduction of WIN55212-2 stimulated GTPγS binding by CB1 W5.43(280)A mutation” value is listed as 245 fold. Moreover, the “Reduction of binding by CB1 W5.43(280)A mutation” value with CB1 W5.43(280)A [3] is 16.8 fold.
With `C=C[C@@]1(C)CC(=O)[C@]2(O)[C@@]3(C)[C@@H](O)CCC(C)(C)[C@@H]3[C@H](O)[C@H](OC(C)=O)[C@@]2(C)O1` [Forskolin, forskolin], the 50% effective concentration (EC50) in test [4] was determined as 2420 nM; in test [5], 1320 nM; in test [6], 1810 nM; in test [7] it was 2020 nM.
